Measurements published in US9045482B2, “Pyrido[4,3-B]indoles and methods of use” (Medivation Technologies, Inc., priority 2009, dated 2015).

Experiments:
[1] = molecular target: human recombinant histamine H1 receptor (Homo sapiens, UniProt P35367); test: Histamine H1 radioligand binding ([3H]Pyrilamine); conditions: read-out: Binding data (Percentage Inhibition) Histamine Binding H1
Procedure: To evaluate in radioligand binding assays the activity of compounds of the invention, human recombinant histamine H1 receptor expressed in Chinese hamster ovary (CHO) cells [De Backer, M. et al., Biochem. Biophys. Res. Comm. (1993), 197(3):1601] in a modified Tris-HCl buffer (50 mM Tris-HCl, pH 7.4, 2 mM MgCl2, 100 mM NaCl, 250 mM Sucrose) was used. Compounds of the invention were incubated with 1.2 nM [^3H]Pyrilamine for 180 min at 25° C. Non-specific binding was estimated in the presence of 1 μM pyrilamine. Receptor proteins were filtered and washed, the filters were then counted to determine [^3H]Pyrilamine specifically bound. Compounds were screened at 1 μM or lower, using 1% DMSO as vehicle. Biochemical assay results are presented as the percent inhibition of specific binding in Table 2.

[2] = molecular target: human recombinant serotonin (5-Hydroxytryptamine) 5-HT7 receptor (Homo sapiens, UniProt P34969); test: Serotonin 5-HT7 radioligand binding ([3H]LSD); conditions: 0.1 μM ligand concentration
Sequence of human recombinant serotonin (5-Hydroxytryptamine) 5-HT7 receptor (P34969 whole entry): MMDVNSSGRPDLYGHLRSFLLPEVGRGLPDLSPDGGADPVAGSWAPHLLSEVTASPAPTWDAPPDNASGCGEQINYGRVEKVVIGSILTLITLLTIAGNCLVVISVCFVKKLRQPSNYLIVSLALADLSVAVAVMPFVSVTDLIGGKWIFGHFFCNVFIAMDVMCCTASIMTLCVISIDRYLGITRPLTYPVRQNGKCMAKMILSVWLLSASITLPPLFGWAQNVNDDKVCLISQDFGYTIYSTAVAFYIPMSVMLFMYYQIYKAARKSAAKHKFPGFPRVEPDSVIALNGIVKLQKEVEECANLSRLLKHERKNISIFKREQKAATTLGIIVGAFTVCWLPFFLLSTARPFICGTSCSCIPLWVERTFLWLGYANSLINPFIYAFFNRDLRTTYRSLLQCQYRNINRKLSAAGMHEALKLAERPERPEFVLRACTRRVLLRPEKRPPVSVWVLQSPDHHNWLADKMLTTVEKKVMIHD
Procedure: Compounds of invention were incubated with 5.5 nM [^3H]Lysergic acid diethylamide (LSD) for 2 h at 25° C. […] Receptor proteins were filtered and washed, the filters were then counted to determine [^3H]LSD specifically bound. Compounds were screened at 1 μM or lower, using 1% DMSO as vehicle. Biochemical assay results are presented as the percent inhibition of specific binding in Table 4.

[3] = molecular target: T1, rat adrenergic α1A receptor (Rattus norvegicus, UniProt P43140); test: Adrenergic α1A radioligand binding ([3H]Prozosin); set-up: species or system Wistar Rat; conditions: 0.1 μM ligand conc.
T1 construct: rat adrenergic α1A receptor obtained from Wistar Rat submaxillary glands; from tissue; host or cells: Wistar Rat submaxillary glands
T1 sequence (P43140 1-466): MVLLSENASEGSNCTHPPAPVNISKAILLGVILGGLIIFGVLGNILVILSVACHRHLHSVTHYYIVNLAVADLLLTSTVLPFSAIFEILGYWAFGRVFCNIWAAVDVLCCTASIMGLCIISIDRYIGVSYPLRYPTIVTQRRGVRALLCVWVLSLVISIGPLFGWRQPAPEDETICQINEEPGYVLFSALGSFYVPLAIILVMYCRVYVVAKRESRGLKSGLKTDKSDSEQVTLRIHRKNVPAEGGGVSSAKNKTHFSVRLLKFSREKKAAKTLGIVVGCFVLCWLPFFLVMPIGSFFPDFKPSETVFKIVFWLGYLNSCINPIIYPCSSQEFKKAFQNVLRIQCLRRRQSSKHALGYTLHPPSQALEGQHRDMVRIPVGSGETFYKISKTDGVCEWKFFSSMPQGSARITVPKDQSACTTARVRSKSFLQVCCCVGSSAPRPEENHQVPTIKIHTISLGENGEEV
Procedure: To evaluate in radioligand binding assays the activity of compounds of the invention, rat adrenergic α1A receptor obtained from Wistar Rat submaxillary glands [Michel, A. D. et al., Br. J. Pharmacol. (1989), 98:883] in a modified Tris-HCl buffer (50 mM Tris-HCl buffer, pH 7.4, 0.5 mM EDTA) was used. Compounds of the invention were incubated with 0.25 nM [^3H]Prozosin for 60 min at 25° C. Non-specific binding was estimated in the presence of 10 μM phentolamine. Receptor proteins were filtered and washed, the filters were then counted to determine [^3H]Prozosin specifically bound. Compounds of the invention were screened at 1 μM or lower, using 1% DMSO as vehicle. Compounds of the invention were tested in this biochemical assay. Biochemical assay results for representative compounds were presented as the percent inhibition of specific binding in Table 3.

[4] = molecular target: T2, human recombinant serotonin (5-Hydroxytryptamine) 5-HT2C receptor (Homo sapiens, UniProt P28335); test: Serotonin 5-HT2C radioligand binding ([3H]Mesulergine)
T2 construct: expressed in transfected cells; host or cells: Chinese hamster ovary (CHO-K1) cells
T2 sequence (P28335 33-458): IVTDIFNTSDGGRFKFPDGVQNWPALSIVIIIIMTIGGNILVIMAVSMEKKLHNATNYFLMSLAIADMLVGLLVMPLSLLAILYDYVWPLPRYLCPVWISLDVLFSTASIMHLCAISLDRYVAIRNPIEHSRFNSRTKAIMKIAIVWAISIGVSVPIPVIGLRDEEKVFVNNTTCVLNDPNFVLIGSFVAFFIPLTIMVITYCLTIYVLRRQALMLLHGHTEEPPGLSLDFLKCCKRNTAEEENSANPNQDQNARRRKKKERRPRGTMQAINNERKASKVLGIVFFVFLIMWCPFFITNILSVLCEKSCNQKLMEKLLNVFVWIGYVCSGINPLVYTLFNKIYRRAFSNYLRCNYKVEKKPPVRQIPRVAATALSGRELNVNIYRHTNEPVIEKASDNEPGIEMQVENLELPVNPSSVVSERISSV
Procedure: (1997), 69:1449] in a modified Tris-HCl buffer (50 mM Tris-HCl, pH 7.4, 0.1% Ascorbic Acid, 10 μM Pargyline) was used. Compounds of the invention were incubated with 1 nM [^3H]Mesulergine for 60 min at 25° C. Non-specific binding was estimated in the presence of 1 μM Mianserin. Receptor proteins were filtered and washed, the filters were then counted to determine [^3H]Mesulergine specifically bound. Compounds were screened at 1 μM or lower, using 1% DMSO as vehicle. Biochemical assay results are presented as the percent inhibition of specific binding in Table 4.

Sequence of human recombinant histamine H1 receptor (P35367 whole entry): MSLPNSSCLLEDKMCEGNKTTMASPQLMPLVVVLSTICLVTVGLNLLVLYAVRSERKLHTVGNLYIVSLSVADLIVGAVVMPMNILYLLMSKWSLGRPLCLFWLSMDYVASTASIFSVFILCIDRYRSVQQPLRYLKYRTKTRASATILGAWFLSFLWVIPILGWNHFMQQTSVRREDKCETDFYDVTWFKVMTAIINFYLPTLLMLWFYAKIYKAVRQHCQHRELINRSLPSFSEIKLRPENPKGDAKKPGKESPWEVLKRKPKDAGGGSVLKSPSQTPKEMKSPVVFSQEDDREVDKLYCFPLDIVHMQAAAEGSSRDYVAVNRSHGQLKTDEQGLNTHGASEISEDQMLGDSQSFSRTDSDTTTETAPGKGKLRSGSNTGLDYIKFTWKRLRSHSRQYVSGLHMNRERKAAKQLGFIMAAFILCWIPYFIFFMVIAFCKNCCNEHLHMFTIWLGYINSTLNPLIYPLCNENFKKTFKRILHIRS

Row | Compound | inhibition at 0.1 µM [1] [%] | Percent Inhibition of ligand binding Serotonin 5-HT7 [2] [%] | Percent Inhibition of ligand binding Adrenergic α1A [3] [%] | Percent Inhibition of ligand binding Serotonin 5-HT2C ([4]; 0.1 μM ligand concentration) [%] | inhibition at 1 µM [1] [%] | Percent Inhibition of ligand binding Serotonin 5-HT2C ([4]; 1 μM ligand concentration) [%]
1 | Cc1cnc2c(c1)c1c(n2CCc2ccc(C)nc2)CCN2CCCC12 (centres unmarked) [Compound 33, 10-methyl-7-(2-(6-methylpyridin-3-yl)ethyl)-2,3,5,6,7,1c-hexahydro-1H-pyrido[3′,2′:4,5]pyrrolo[2,3-g]indolizine] | 73 | 44 | 26 | 13 |  | 
2 | Cc1ccc(CCn2c3c(c4cccnc42)C2CCCN2CC3)cn1 (centres unmarked) [Compound 34, 7-(2-(6-methylpyridin-3-yl)ethyl)-2,3,5,6,7,1c-hexahydro-1H-pyrido[3′,2′:4,5]pyrrolo[2,3-g]indolizine] | 22 | 18 | −9 | 7 |  | 
3 | O=C(Cn1c2c(c3cccnc31)CN1CCCC1C2)N1CCCCC1 (centres unmarked) [Compound 37, 1-(piperidin-1-yl)-2-(8,9,9a,10-tetrahydro-5H-pyrido[3′,2′:4,5]pyrrolo[3,2-f]indolizin-11(7H)-yl)ethanone] | 6 | 3 | −6 | 9 |  | 
4 | O=C(Cn1c2c(c3cccnc31)C1CCCN1CC2)N1CCCCC1 (centres unmarked) [Compound 38, 1-(piperidin-1-yl)-2-(2,3,5,6-tetrahydro-1H-pyrido[3′,2′:4,5]pyrrolo[2,3-g]indolizin-7(11cH)-yl)ethanone] | 5 | 23 | −6 | 16 |  | 
5 | Fc1ccc(CCn2c3c(c4cc(Cl)ccc42)C2CCCN2CC3)cc1 (centres unmarked) [Compound 1, 7-(4-fluorophenethyl)-10-chloro-2,3,5,6,7,11c-hexahydro-1H-indolizino[7,8-b]indole] |  |  |  |  | -2 | 44
6 | Fc1ccc(CCn2c3c(c4cc(Cl)ccc42)CN2CCCC2C3)cc1 (centres unmarked) [Compound 2, 10-(4-fluorophenethyl)-7-chloro-2,3,5,10,11,11a-hexahydro-1H-indolizino[7,6-b]indole] |  |  |  |  | 9 | 53
7 | C/C(=C\n1c2c(c3cc(C)ccc31)C1CCCN1CC2)c1ccc(C)nc1 (centres unmarked) [Compound 32, (E)-10-methyl-7-(2-(6-methylpyridin-3-yl)prop-1-enyl)-2,3,5,6,7,11c-hexahydro-1H-indolizino[7,8-b]indole] | 1 | 61 | 55 | 26 |  | 
8 | Cc1ccc(CCn2c3c(c4cccnc42)CN2CCCC2C3)cn1 (centres unmarked) [Compound 35, 11-(2-(6-methylpyridin-3-yl)ethyl)-7,8,9,9a,10,11-hexahydro-5H-pyrido[3′,2′:4,5]pyrrolo[3,2-f]indolizine] | 50 | 6 | −2 | 15 |  | 
9 | Cc1cnc2c(c1)c1c(n2CCc2ccc(C)nc2)CC2CCCN2C1 (centres unmarked) [Compound 36, 3-methyl-11-(2-(6-methylpyridin-3-yl)ethyl)-7,8,9,9a,10,11-hexahydro-5H-pyrido[3′,2′:4,5]pyrrolo[3,2-f]indolizine] | 96 | 23 | 26 | 19 |  | 
